Measurements as given in patent US20160280743A1, “BACTERIAL MUTANTS AND METHODS OF USE” (priority 2015, published 2016).

What was measured:
[1] = tested on: E. coli WT, WT-Pore, ΔTolC, ΔTolC-Pore; assay type: cell-based, Escherichia coli; settings: E. coli
[2] = tested on: E. coli BW 25113 (WT); settings: E. coli WT without pore; 0.1% arabinose; LB, 37° C., 16 h
Method: (§1) Susceptibilities of E. coli and P. aeruginosa cells to different classes of antibiotics were determined by two-fold broth dilution method [1] with following modifications. Cells were grown in Luria-Bertani (LB) broth (tryptone 10 g/L, yeast extract 5 g/L and NaCl 5 g/L) with appropriate selection markers as needed, at 37° C. with shaking at 200 rpm. When needed, at OD600˜0.3, either L-arabinose (final concentration 0.1%) or IPTG (final concentration 0.1 mM) were added to induce the expression of the pore and cells were further incubated until OD600 reached 1.0. MICs of various antimicrobial agents were measured in 96-well micro-titer plates. For this purpose, exponentially growing cells were inoculated at a density of 10^5 cells/ml into wells containing LB medium in the presence of two-fold increasing concentrations of drugs under investigation at constant inducer concentration of 0.1% arabinose for E. coli or 0.1 mM IPTG for P. aeruginosa strains. Cell growth was determined visually or using Spark 10M microplate reader (Tecan) after incubation of the micro-titer plates at 37° C. for 16 h.
(§2) For this purpose, induced cells were dispensed into 96-well microplates with LB medium containing two-fold dilutions of an antibiotic of interest and a respective concentration of an inducer.

[3] = tested on: E. coli WT-Pore (GKCW101, FhuAΔC/Δ4L pore); settings: 0.1% arabinose, LB, 37° C., 16 h
Method: as §1, §2

[4] = tested on: E. coli GD102 (ΔTolC); settings: E. coli ΔTolC without pore; 0.1% arabinose; LB, 37° C., 16 h
Method: as §1, §2

[5] = tested on: E. coli ΔTolC-Pore (GKCW103, FhuAΔC/Δ4L pore); settings: 0.1% arabinose, LB, 37° C., 16 h
Method: as §1, §2

[6] = tested on: P. aeruginosa PAO1, PAO1-Pore, Δ3, Δ3-Pore; test: Fold MIC change between P. aeruginosa strains (OM barrier, efflux); assay type: cell-based, Pseudomonas aeruginosa; settings: P. aeruginosa
[7] = tested on: P. aeruginosa PAO1; settings: P. aeruginosa PAO1 without pore; 0.1 mM IPTG; LB, 37° C., 16 h
Method: as §1, §2

[8] = tested on: P. aeruginosa PAO1Δ3 (Δ3); settings: P. aeruginosa Δ3 without pore; 0.1 mM IPTG; LB, 37° C., 16 h
Method: as §1, §2

[9] = tested on: P. aeruginosa Δ3-Pore (GKCW116, FhuAΔC/Δ4L pore); test: MIC, two-fold broth dilution, P. aeruginosa Δ3-Pore; settings: P. aeruginosa Δ3-Pore; 0.1 mM IPTG; LB, 37° C., 16 h
Method: as §1, §2

[10] = tested on: P. aeruginosa PAO1-Pore (GKCW115, FhuAΔC/Δ4L pore); test: MIC, two-fold broth dilution, P. aeruginosa PAO1-Pore; settings: P. aeruginosa PAO1-Pore; 0.1 mM IPTG; LB, 37° C., 16 h
Method: as §1, §2

Substance	Fold MIC change, Efflux, WT-Pore/ΔTolC-Pore [1] [fold]	Fold MIC change, Efflux, WT/ΔTolC [1]	Fold MIC change, OM barrier, WT/WT-Pore [1]	Fold MIC change, OM barrier, ΔTolC/ΔTolC-Pore [1] [fold]	MIC BW 25113 (WT) — [2] [µg/mL]	MIC BW 25113 (WT) Pore [3] [µg/mL]	MIC GD102 (ΔTolC) — [4] [µg/mL]	MIC GD102 (ΔTolC) Pore [5] [µg/mL]	Fold MIC change, Efflux, PAO1-Pore/Δ3-Pore [6] [fold]	Fold MIC change, Efflux, PAO1/Δ3 [6] [fold]	Fold MIC change, OM barrier, PAO1/PAO1-Pore [6] [fold]	Fold MIC change, OM barrier, Δ3/Δ3-Pore [6] [fold]	MIC PAO1 — [7] [µg/mL]	MIC Δ3 — [8] [µg/mL]	MIC Δ3 Pore [9] [µg/mL]	MIC PAO1 Pore [10] [µg/mL]
Gentamicin	0.5	1 fold	2 fold	1	4	2	4	4								
Tobramycin									2	4	2	1	2	0.5	0.5	1
Triclosan					0.031	0.031	0.004	0.002					>1024	32	8	>1024
Virginiamycin	512	≧64 fold	≧2 fold	16	>256	256	8	0.5								
